From EP0979243B1, “ACTIVATION OF PEPTIDES” (Anmat Technology Limited, priority 1997, dated 2006)

Type: biochemical
Procedure: As an example of particulates for use in drug-delivery or diagnostic assay,liposomes encapsulating Calcein (Sigma) dye were prepared by the extrusion method of Biochim. Biophys. Acta (1985) 812; 55. Specifically, Phosphotidylcholine (12mg) and cholesterol (2mg) were evaporated to form a lipid film in a round bottom flask. The film was hydrated with 2ml of 120mM Calcein in 10mM sodium phosphate/120mM Sodium chloride buffer of pH 7.4. Liposomes were then prepared by ten times extrusion through a 0.2 micron polycarbonate filter using the reported method. Any non-encapsulated dye was removed by gel filtration on a PD-10 column.
In a typical assay a 2ml buffer containing a known concentration (depending on the activity) of a peptide prepared as in Example 1 is treated with 3µl liposomes prepared as in Example 2. The progress of dye leakage from the liposomes indicates release of the marker and is followed by recording an increase in fluorescence signal. The assay can be repeated in the presence of a binder. Where Calcein is used as the dye excitation and emission wavelengths of 490nm and 520nm were used. […]. The concentration of binder required to fully bind the peptide can be evaluated using series of binder concentration at fixed peptide concentrations or vice versa. […]

Question: With `CC[C@H](C)[C@H](NC(=O)CNC(C)=O)C(=O)NCC(=O)N[C@@H](C)C(=O)N[C@H](C(=O)N[C@@H](CC(C)C)C(=O)N[C@@H](CCCNC(=N)N)C(=O)N[C@H](C(=O)N[C@@H](CC(C)C)C(=O)N[C@H](C(=O)N[C@H](C(=O)NCC(=O)N[C@@H](CCCCNC(=O)CCCC[C@@H]1SC[C@@H]2NC(=O)N[C@@H]21)C(=O)N1CCC[C@H]1C(=O)N[C@@H](C)C(=O)N[C@@H](CC(C)C)C(=O)N[C@H](C(=O)N[C@@H](CO)C(=O)N[C@@H](Cc1c[nH]c2ccccc12)C(=O)N[C@H](C(=O)N[C@@H](CCCNC(=N)N)C(=O)N[C@@H](CCCNC(=N)N)C(=O)N[C@@H](CCCNC(=N)N)C(=O)N[C@@H](CCCNC(=N)N)C(=O)N[C@@H](CCC(N)=O)C(=O)N[C@@H](CCC(N)=O)C(N)=O)[C@@H](C)CC)[C@@H](C)CC)[C@@H](C)O)[C@@H](C)O)C(C)C)C(C)C` [biotin modified peptide of example 1b] as the molecule, how does the “stability of integrated system (single reagent) in the inactive form” value (Figure 4A, under 2hrs, avidin and liposomes in 2ml buffer) read?
Answer: very stable with little or no leakage of the contents

Question: And the “stability and activation of integrated system” value (Figure 4B, under 17hrs, nitroavidin and liposomes in 2ml buffer, biotin added at point X)?
Answer: stable and activated specifically with ligand
